Test results reported in patent publication US9512139B2, “Conformationally constrained, fully synthetic macrocyclic compounds” (POLYPHOR AG, priority 2009, dated 2016).
Read-outs that look alike come from different tables or passages of the source.

What was measured:
[1] = amide bond
[2] = in vitro; assay type: in vitro ADME, human; conditions: human, plasma, 10 µM; for Plasma Stability 240 min hum [% remain.]: 4 h
Experimental: Example compounds were dissolved in DMSO/H2O 90:10 to a final concentration of 10 mM for plasma stability determination and metabolic stability determination.
Human plasma (3-5 donors, Blutspendedienst SRK, Basel) and CD-1 mouse plasma (mixed gender pool >50 animals, Innovative Research, CA, USA) are both sodium citrate stabilized. The assay is performed in triplicates at 10 μM compound concentration and 37° C. Samples are taken at 0, 15, 60, and 240 minutes and stopped by precipitation with 2 volumes of acetonitrile. The supernatant is collected, evaporated and reconstituted in a 5% acetonitrile solution to be analyzed by HPLC/MS/MS. The resulting peak area counts are expressed in percent of the 0 value and used to determine the endpoint stability in % and the half life in minutes. In order to monitor assay integrity the degradation of propantheline is assayed with every experimental set.

[3] = target: T1, Prostaglandin F (FP) Receptor (Homo sapiens, UniProt P43088); assay: Ca2+ assay (FLIPR) for the GPCR prostaglandin F (FP) receptor, agonist and antagonist mode; assay type: cell-based
T1 construct: host or cells: Ca2+ optimized hematopoietic cell lines (rat)
In short: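 Ca2+-optimized rat hematopoietic cells carrying the receptor were loaded with Fluo-8 in HBSS/20 mM HEPES/2.5 mM probenecid and read on FLIPR. Agonist mode: 10 min compound incubation at 25 °C, % activation relative to Emax. Antagonist mode: stimulation at EC80 of the reference agonist (prostaglandin F2α for FP, 2MeSATP for P2Y1), fluorescence monitored 180 s.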

[4] = Metabolic stability assay, CD-1 mouse microsomes; assay type: in vitro ADME; conditions: CD-1, mouse, microsomes; for half-life at 10 µM: both sexes; for Metabolic Stability 60 min mouse [% remain.]: both, 1 h, 10 µM
[5] = Metabolic stability assay, human microsomes; assay type: in vitro ADME; conditions: human, microsomes; for half-life at 10 µM: both sexes; for Metabolic Stability 60 min hum [% remain.]: both, 1 h, 10 µM
[6] = in vitro; assay type: in vitro ADME, mouse; conditions: both, CD-1, mouse, plasma, 10 µM; for Plasma Stability 240 min mouse [% remain.]: 4 h
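For Plasma Stability 240 min mouse [% remain.] in this document: sodium citrate stabilized mouse plasma, parent compound quantified by HPLC/MS/MS relative to its peak area at time zero, run in triplicate.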
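For Plasma Stability T½ [min] mouse in this document: sodium citrate stabilized mouse plasma, parent compound quantified by HPLC/MS/MS relative to its peak area at time zero, run in triplicate.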

T1 sequence (P43088 whole entry): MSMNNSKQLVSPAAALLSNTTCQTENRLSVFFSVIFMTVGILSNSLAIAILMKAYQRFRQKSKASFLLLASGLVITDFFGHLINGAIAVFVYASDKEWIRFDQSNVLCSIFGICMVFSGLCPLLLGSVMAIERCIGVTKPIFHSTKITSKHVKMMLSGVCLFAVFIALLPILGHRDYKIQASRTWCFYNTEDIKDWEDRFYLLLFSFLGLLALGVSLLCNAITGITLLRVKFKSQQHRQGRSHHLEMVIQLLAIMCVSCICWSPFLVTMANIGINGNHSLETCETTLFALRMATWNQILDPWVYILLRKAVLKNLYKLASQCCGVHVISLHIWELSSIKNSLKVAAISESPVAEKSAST

In the case of `CC(C)(C)OC(=O)N[C@@H]1C[C@H]2COc3ccc(Br)cc3C(=O)NC3(CCCC3)C(=O)N[C@@H](Cc3ccc4ccccc4c3)CC(=O)N2C1`, the ring closure, yield of all isomers ([1]; from CC(C)(C)OC(=O)N[C@H]1CN[C@H](COc2ccc(Br)cc2C(=O)NC2(C(=O)N[C@H](CC(=O)O)Cc3ccc4ccccc4c3)CCCC2)C1, T3P, i-Pr2NEt, CH2Cl2, 1.0 mM, 25.0 °C, 2.0 h) is reported as 68%.

For `CC(C)(C)OC(=O)N[C@H]1CCCCSc2cccc(c2)OC[C@@H]2C[C@H](OCc3ccc(Br)cc3)CN2C1=O`, the ring closure, yield of all isomers ([1]; from CC(C)(C)OC(=O)N[C@@H](CCCCSc1cccc(OC[C@@H]2C[C@H](OCc3ccc(Br)cc3)CN2)c1)C(=O)O, T3P, i-Pr2NEt, CH2Cl2, 2.0 mM, 25.0 °C, 4.0 h) was 99%.

Work on `CC(C)(C)OC(=O)N[C@H]1C[C@H]2COc3cccc(c3)C(=O)NCCC[C@H](NC(=O)OCc3ccccc3)C(=O)N2C1` yielded a ring closure, yield of all isomers ([1]; from CC(C)(C)OC(=O)N[C@@H]1CN[C@H](COc2cccc(C(=O)NCCC[C@H](NC(=O)OCc3ccccc3)C(=O)O)c2)C1, T3P, i-Pr2NEt, CH2Cl2, 5.37 mM) of 71%.

`CN1C(=O)c2cc(F)ccc2OC[C@@H]2CN(C(=O)OC(C)(C)C)CCN2C(=O)CC[C@H]1C(=O)OCc1ccccc1` showed a ring closure, yield of all isomers ([1]; from CN(C(=O)c1cc(F)ccc1OC[C@@H]1CN(C(=O)OC(C)(C)C)CCN1)[C@@H](CCC(=O)O)C(=O)OCc1ccccc1, T3P, CH2Cl2, 0.57 mM, 25.0 °C, 20.0 h) of 77%.

In the case of `CN1C(=O)c2cc(F)ccc2OC[C@@H]2C[C@H](NC(=O)OCC[Si](C)(C)C)CN2C(=O)CC[C@H]1C(=O)OCc1ccccc1`, the ring closure, yield of all isomers ([1]; from CN(C(=O)c1cc(F)ccc1OC[C@@H]1C[C@H](NC(=O)OCC[Si](C)(C)C)CN1)[C@@H](CCC(=O)O)C(=O)OCc1ccccc1, T3P, CH2Cl2, 10.0 mM, 25.0 °C, 20.0 h) is reported as 61%.

Work on `CN1C(=O)c2cccc(c2)OC[C@@H]2C[C@H](NC(=O)OC(C)(C)C)CN2C(=O)COC[C@H]1C(=O)OCc1ccccc1` yielded a ring closure, yield of all isomers ([1]; from CN(C(=O)c1cccc(OC[C@@H]2C[C@H](NC(=O)OC(C)(C)C)CN2)c1)[C@@H](COCC(=O)O)C(=O)OCc1ccccc1, FDPP, DMF, 5.2 mM) of 80%.

With `CN1CC(=O)N2CCN(C(=O)OC(C)(C)C)C[C@@H]2COc2ccc(F)cc2C(=O)N(C)[C@@H](C(=O)OCc2ccccc2)CCC1=O` the ring closure, yield of all isomers ([1]; from CNCC(=O)N1CCN(C(=O)OC(C)(C)C)C[C@@H]1COc1ccc(F)cc1C(=O)N(C)[C@H](CCC(=O)O)C(=O)OCc1ccccc1, T3P / i-Pr2NEt, CH2Cl2, 10.4 mM) was 96%.

In the case of `CN1CC(=O)N2CCN(C(=O)OC(C)(C)C)C[C@H]2COc2ccc(F)cc2C(=O)N(C)[C@H](C(=O)OCc2ccccc2)CCC1=O`, the ring closure, yield of all isomers ([1]; from CN(CC(=O)O)C(=O)CC[C@@H](C(=O)OCc1ccccc1)N(C)C(=O)c1cc(F)ccc1OC[C@@H]1CN(C(=O)OC(C)(C)C)CCN1, T3P / i-Pr2NEt, CH2Cl2, 10.0 mM) is reported as 90%.

`CN1CC(=O)N2C[C@@H](NC(=O)OC(C)(C)C)C[C@H]2COc2ccc(F)cc2C(=O)N(C)[C@H](C(=O)OCc2ccccc2)CCC1=O` showed a ring closure, yield of all isomers ([1]; from CNCC(=O)N1C[C@@H](NC(=O)OC(C)(C)C)C[C@H]1COc1ccc(F)cc1C(=O)N(C)[C@@H](CCC(=O)O)C(=O)OCc1ccccc1, FDPP, DMF, 8.44 mM, 25.0 °C, 20.0 h) of 94%.

Compound `CN1CC(=O)N2C[C@@H](NC(=O)OCC[Si](C)(C)C)C[C@H]2COc2cccc3c2C[C@@](NC(=O)OC(C)(C)C)(CC3)C(=O)N(C)C[C@H](NC(=O)OCc2ccccc2)C1=O` has a ring closure, yield of all isomers ([1]; from CN(CC(=O)O)C(=O)[C@H](CN(C)C(=O)[C@]1(NC(=O)OC(C)(C)C)CCc2cccc(OC[C@@H]3C[C@H](NC(=O)OCC[Si](C)(C)C)CN3)c2C1)NC(=O)OCc1ccccc1, T3P, i-Pr2NEt, CH2Cl2, 10.0 mM, 2.0 h) of 44%.

Compound `CN1CCCC[C@H](NC(=O)OCc2ccccc2)C(=O)N2C[C@@H](NC(=O)OC(C)(C)C)C[C@H]2COc2cncc(c2)C1=O` has a ring closure, yield of all isomers ([1]; from CN(CCCC[C@H](NC(=O)OCc1ccccc1)C(=O)O)C(=O)c1cncc(OC[C@@H]2C[C@H](NC(=O)OC(C)(C)C)CN2)c1, T3P, CH2Cl2, 4.78 mM) of 79%.

`CN1CCC[C@H](NC(=O)OCc2ccccc2)C(=O)N2C[C@@H](Cc3ccccc3)C[C@H]2COc2cccc(c2)C1=O` gave a ring closure, yield of all isomers ([1]; from CN(CCC[C@H](NC(=O)OCc1ccccc1)C(=O)O)C(=O)c1cccc(OC[C@@H]2C[C@H](Cc3ccccc3)CN2)c1, T3P, CH2Cl2, 4.5 mM, 25.0 °C, 0.5 h) of 37%.

`CN1CCC[C@H](NC(=O)OCc2ccccc2)C(=O)N2C[C@@H](NC(=O)OCC[Si](C)(C)C)C[C@H]2COc2cccc(c2)C1=O` showed a ring closure, yield of all isomers ([1]; from CN(CCC[C@H](NC(=O)OCc1ccccc1)C(=O)O)C(=O)c1cccc(OC[C@@H]2C[C@H](NC(=O)OCC[Si](C)(C)C)CN2)c1, T3P, CH2Cl2, 9.4 mM) of 54%.

With `CN1CCC[C@H](NC(=O)OCc2ccccc2)C(=O)N2C[C@@H](OCc3ccc(Br)cc3)C[C@H]2COc2cccc(c2)C1=O` the ring closure, yield of all isomers ([1]; from CN(CCC[C@H](NC(=O)OCc1ccccc1)C(=O)O)C(=O)c1cccc(OC[C@@H]2C[C@H](OCc3ccc(Br)cc3)CN2)c1, T3P, CH2Cl2, 5.5 mM, 25.0 °C, 20.0 h) was 57%.

For `CN1CCC[C@H](NC(=O)OCc2ccccc2)C(=O)N2C[C@@H](OCc3ccc(Br)cc3)C[C@H]2CSc2cccc(c2)C1=O`, the ring closure, yield of all isomers ([1]; from CN(CCC[C@H](NC(=O)OCc1ccccc1)C(=O)O)C(=O)c1cccc(SC[C@@H]2C[C@H](OCc3ccc(Br)cc3)CN2)c1, T3P, CH2Cl2, 1.96 mM, 25.0 °C, 3.0 h) was 79%.

In the case of `CN1CCC[C@H](NC(=O)OCc2ccccc2)C(=O)N2C[C@@H](Oc3ccccc3)C[C@H]2COc2cccc(c2)C1=O`, the ring closure, yield of all isomers ([1]; from CN(CCC[C@H](NC(=O)OCc1ccccc1)C(=O)O)C(=O)c1cccc(OC[C@@H]2C[C@H](Oc3ccccc3)CN2)c1, FDPP, DMF, 5.7 mM, 25.0 °C, 20.0 h) is reported as 63%.

For `CN1CC[C@H](NC(=O)OCc2ccccc2)C(=O)N2C[C@@H](NC(=O)OCC[Si](C)(C)C)C[C@H]2COc2cccc(c2)C1=O`, the ring closure, yield of all isomers ([1]; from CN(CC[C@H](NC(=O)OCc1ccccc1)C(=O)O)C(=O)c1cccc(OC[C@@H]2C[C@H](NC(=O)OCC[Si](C)(C)C)CN2)c1, FDPP, DMF, 0.97 mM) was 43%.

With `CN1C[C@H](NC(=O)OCc2ccccc2)C(=O)N(C)CC(=O)N2C[C@@H](NC(=O)OCC[Si](C)(C)C)C[C@H]2COc2cccc(c2)C1=O` the ring closure, yield of all isomers ([1]; from CN(C[C@H](NC(=O)OCc1ccccc1)C(=O)N(C)CC(=O)O)C(=O)c1cccc(OC[C@@H]2C[C@H](NC(=O)OCC[Si](C)(C)C)CN2)c1, FDPP, DMF, 9.73 mM) was 63%.

For `CN1C[C@H](NC(=O)OCc2ccccc2)C(=O)N(C)CC(=O)N2C[C@H](NC(=O)OCC[Si](C)(C)C)C[C@H]2COc2cccc(c2)C1=O`, the ring closure, yield of all isomers ([1]; from CN(C[C@H](NC(=O)OCc1ccccc1)C(=O)N(C)CC(=O)O)C(=O)c1cccc(OC[C@@H]2C[C@@H](NC(=O)OCC[Si](C)(C)C)CN2)c1, FDPP, DMF, 10.16 mM) was 68%.

In the case of `C[C@H]1C(=O)NCCC(=O)N2C[C@H](NC(=O)c3ccccc3)C[C@H]2COc2cccc(c2)C(=O)N1C`, the ring closure, yield of all isomers ([1]; from *CNC(=O)CCCOc1cc(OC)c(CN(C(=O)c2ccccc2)[C@@H]2C[C@@H](COc3cccc(C(=O)N(C)[C@@H](C)C(=O)O)c3)N(C(=O)CCN)C2)c(OC)c1, FDPP, i-Pr2NEt, DMF, 67.0 mM, 30.0 h, 7 steps) is reported as 16%.

For `CN1CCC[C@H](NC(=O)OCc2ccccc2)C(=O)N2C[C@@H](NC(=O)Cc3ccc4ccccc4c3)C[C@H]2COc2cccc(c2)C1=O` [Ex. 184, benzyl N-[(4S,6S,10S)-14-methyl-6-{[2-(2-naphthyl)acetyl]amino}-9,15-dioxo-2-oxa-8,14-diazatricyclo[14.3.1.0^4,8]icosa-1(20),16,18-trien-10-yl]carbamate], the Plasma Stability T½ [min] hum [2] was over 240 min, the “Plasma Stability 240 min hum [% remain.]” value [2] was 66 % remain and the IC50 [3] was 520 nM. For the same compound, the inhibition at 10 µM [3] was 74%, the half-life at 10 µM [4] was 22 min and the “Metabolic Stability 60 min mouse [% remain.]” value [4] was 0 % remain. The half-life at 10 µM [5] was 15 min, the “Metabolic Stability 60 min hum [% remain.]” value [5] was 0 % remain and the Plasma Stability T½ [min] mouse [6] was over 240 min. The “Plasma Stability 240 min mouse [% remain.]” value [6] was 58 % remain.

In the case of `CN1C[C@H](NC(=O)OCc2ccccc2)C(=O)N(C)CC(=O)N2C[C@@H](NC(=O)Cc3c[nH]c4ccccc34)C[C@H]2COc2cccc(c2)C1=O` [Ex. 200, benzyl N-[(4S,6S,13S)-6-{[2-(1H-indol-3-yl)acetyl]amino}-11,15-dimethyl-9,12,16-trioxo-2-oxa-8,11,15-triazatricyclo[15.3.1.0^4,8]henicosa-1(21),17,19-trien-13-yl]carbamate], the Plasma Stability T½ [min] hum [2] is reported as over 240 min, the “Plasma Stability 240 min hum [% remain.]” value [2] is reported as 91 % remain and the IC50 [3] is reported as 28000 nM. For the same compound, the inhibition at 10 µM [3] was 38%, the half-life at 10 µM [4] was 30 min and the “Metabolic Stability 60 min mouse [% remain.]” value [4] was 26 % remain. The half-life at 10 µM [5] was 27 min, the “Metabolic Stability 60 min hum [% remain.]” value [5] was 12 % remain and the Plasma Stability T½ [min] mouse [6] was over 240 min. The “Plasma Stability 240 min mouse [% remain.]” value [6] was 100 % remain.

With `CN1CCC[C@H](NC(=O)Cc2cccc3ccccc23)C(=O)N2C[C@@H](NC(=O)Cc3ccc4ccccc4c3)C[C@H]2COc2cccc(c2)C1=O` [Ex. 505, N-[(4S,6S,10S)-14-methyl-6-{[2-(2-naphthyl)acetyl]amino}-9,15-dioxo-2-oxa-8,14-diazatricyclo[14.3.1.0^4,8]icosa-1(20),16,18-trien-10-yl]-2-(1-naphthyl)acetamide] the Plasma Stability T½ [min] hum [2] was over 240 min, the “Plasma Stability 240 min hum [% remain.]” value [2] was 100 % remain and the IC50 [3] was 640 nM. The inhibition at 10 µM [3] was 47%, the half-life at 10 µM [4] was 13 min and the “Metabolic Stability 60 min mouse [% remain.]” value [4] was 3 % remain. For the same compound, the half-life at 10 µM [5] was 21 min, the “Metabolic Stability 60 min hum [% remain.]” value [5] was 9 % remain and the Plasma Stability T½ [min] mouse [6] was over 240 min. The “Plasma Stability 240 min mouse [% remain.]” value [6] was 98 % remain.
